In US5525596A, “Absorption enhancer/solubilizer combination for improved bioavailability of a zwitterionic compound” (Merck & Co., Inc., priority 1994, dated 1996):
Where two headings read alike, the source gives them in different places.

How the values were obtained:
[1] = Jejunal absorption of drug solutions from ligated sections of the jejunum of anesthetized rats (bile collection); assay type: in vivo; conditions: rat, pH 7.4, solution 2 mg/ml drug, read-out: % of Dose Absorbed Relative to IV (+/- s.d.)
Method: (§1) Solutions of palmitoyl carnitine, β-cyclodextrin and an [R-(R*,R*)]-3-[(2-hydroxypropyl)amino]-3-methyl-N-[2,3,4,5-tetrahydro-2-oxo-1-[[2'-(H-tetrazol-5-yl)[1,1'-biphenyl]-4-yl]methyl]-1H-1-benzazepin-3-yl]butanamide having the following structure: [drawing 1] hereinafter referred to as [R-(R*,R*)]-3-[(2-hydroxypropyl)amino]-3-methyl-N-[2,3,4,5-tetrahydro-2-oxo-1-[[2'-(H-tetrazol-5-yl)[1,1'-biphenyl]-4-yl]methyl]-1H-1-benzazepin-3-yl]butanamide were prepared such that [R-(R*,R*)]-3-[(2-hydroxypropyl)amino]-3-methyl-N-[2,3,4,5-tetrahydro-2-oxo-1-[[2'-(H-tetrazol-5-yl)[1,1'-biphenyl]-4-yl]methyl]-1H-1-benzazepin-3-yl]butanamide was maintained at 2 mg/ml. All solutions were prepared in Krebs-Henseleit buffer at Ph 7.4. The solutions were administered to ligated sections of the jejunum of anesthetized rats. […] The bile was collected in 15 minute intervals for 3.5 hours and analyzed for [R-(R*,R*)]-3-[(2-hydroxypropyl)amino]-3-methyl-N-[2,3,4,5-tetrahydro-2-oxo-1-[[2'-(H-tetrazol-5-yl)[1,1'-biphenyl]-4-yl]methyl]-1H-1-benzazepin-3-yl]butanamide content. From the bile volume, the total amount of drug eliminated could be calculated. After an IV dose, 92% of the drug is found in the bile. Therefore all value were divided by 0.92 to give true absorption values. These values are given in table 1, along with standard deviations which were observed.

[2] = Biliary excretion in rats; assay type: in vivo, rat
Method: as §1

[3] = Plasma/blood exposure after administration of compressed tablets to the duodenum of dogs; assay type: in vivo, dog; conditions: tablet, 1 mg/kg drug, 10 mg/kg palmitoyl carnitine chloride, four hours
Method: Compressed tablets were prepared with and without 112 mg β-cyclodextrin (7.5 mg/kg), containing 15 mg of [R-(R*,R*)]-3-[(2-hydroxypropyl)amino]-3-methyl-N-[2,3,4,5-tetrahydro-2-oxo-1[[2'-(H-tetrazol-5-yl)[1,1'-biphenyl]-4-yl]methyl]-1H-1-benzazepin-3-yl]butanamide (1 mg/kg) and 150 mg palmitoyl carnitine chloride (10 mg/kg) in a tablet matrix containing 203 mg microcrystalline cellulose, 100 mg lactose, 20 mg corn starch and 2 mg magnesium stearate. The tablets were administered to the duodenum of dogs through a surgically prepared fistual. Serial blood samples were taken from the dogs for four hours after dosing and analyzed for [R-(R*,R*)]-3-[(2-hydroxypropyl)amino]-3-methyl-N -[2,3,4,5-tetra-hydro-2-oxo-1-[[2'-(H-tetrazol-5-yl)[1,1'-biphenyl]-4-yl]methyl]-1H-1-benzazepin-3-yl]butanamide. The results given as resulting area under [R-(R*,R*)]-3-[(2-hydroxy-propyl)amino] -3-methyl-N-[2,3,4,5-tetrahydro-2-oxo- 1-[[2'-(H-tetrazol-5-yl)[1,1'-biphenyl]-4-yl]methyl]-1H-1-benzazepin-3-yl]butanamide concentration-time curve ± standard deviations, are 361±168 ng min/ml in the absence of β-cyclodextrin and […] in the presence of β-cyclodextrin.

[4] = Absorption of solid formulations (powders, tablets, beads) from unligated sections of the jejunum of anesthetized rats (bile collection); assay type: in vivo; conditions: rat
Method: as §1
Powders were prepared so as to contain in each dose, 2 mg/kg of [R-(R*,R*)]-3-[(2-hydroxypropyl)amino]-3-methyl-N-[2,3,4,5-tetrahydro-2-oxo-1-[[2'-(H-tetrazol-5-yl)[1,1'-biphenyl]-4-yl]methyl]-1H-1-benzazepin-3-yl]butanamide, 0-10 mg/kg palmitoyl carnitine chloride, 0-15 mg/kg β-cyclodextrin and microcrystalline cellulose. The powders were administered to unligated sections of the jujunum of anesthetized rats. Bile was collected and the absorption of [R-(R*,R*)]-3-[(2-hydroxypropyl)amino]-3-methyl-N-[2,3,4,5-tetrahydro-2-oxo-1-[[2'-(H-tetrazol-5-yl)[1,1'-biphenyl]-4-yl]methyl]-1H-1-benzazepin-3-yl]butanamide was determined as in Example 1. The results of these studies are provided in Table 2, along with observed standard deviations.
Lyophilized preparations of [R-(R*,R*)]-3-[(2-hydroxypropyl)amino]-3-methyl-N-[2,3,4,5-tetrahydro-2-oxo-1-[[2'-(H-tetrazol-5-yl)[1,1'-biphenyl]-4-yl]methyl]-1H-1-benzazepin-3-yl]butanamide were prepared from solutions containing 2 mg/ml of [R-(R*,R*)]-3-[(2-hydroxypropyl)amino]-3-methyl-N-[2,3,4,5-tetrahydro-2-oxo-1-[[2'-(H-tetrazol-5-yl)[1,1'-biphenyl]-4-yl]methyl]-1H-1-benzazepin-3-yl]butanamide and 15 mg/ml of β-cyclodextrin or 20 mg/ml hydroxypropyl-β-cyclodextrin. The lyophilized preparations were mixed with palmitoyl carnitine chloride and microcrystalline cellulose and compressed into tablets. The tablets contained 2 mg/kg of [R-(R*,R*)]-3-[(2-hydroxypropyl)amino]-3 -methyl -N-[2,3,4,5,-tetrahydro-2-oxo-1-[[2'-(H-tetrazol-5-yl)[1,1'biphenyl]-4-yl]methyl-1H1-benzazepin-3-yl]butanamide and 10 mg/kg palmitoyl carnitine chloride. The tablets were administered to the unligated sections of the jejunum of anesthetized rats. Bile was collected and the absorption of [R-(R*,R*)]-3-[(2-hydroxypropyl) amino]-3 -methyl -N- [2,3,4,5 -tetrahydro-2-oxo-1-[[2'-(H-tetrazol-5-yl)[1,1'-biphenyl]-4-yl]methyl]-1H- 1-benzazepin-3-yl]butanamide determined as in Example 1. The percentage absorption of [R-(R*,R*)]-3-[(2-hydroxypropyl)amino]-3-methyl-N-[2,3,4,5-tetrahydro-2-oxo-1-[[2'-(H-tetrazol-5-yl)[1,1'-biphenyl]-4-yl]methyl]-1H-1-benzazepin-3-yl]butanamide from the lyophilized formulation containing β-cyclodextrinwas 28.2±18.3 and from the hydroxpropyl-β-cyclodextrin, 7.5±6.2.
Fifteen parts of water were added to a mixture of [R-(R*,R*)]-3-[(2-hydroxypropyl)amino]-3-methyl-N-[2,3,4,5-tetrahydro-2-oxo-1-[[2'-(H-tetrazol-5-yl)[1,1'-biphenyl]-4-methyl]-1H-1-benzazepin-3-yl]butanamide, β-cyclodextrin, palmitoyl carnitine chloride, micro-crystalline cellulose and starct (2:15:10:15:10). The preparation was extruded through a screen ([…]) and spheronized. […]

## C[C@@H](O)CNC(C)(C)CC(=O)N[C@@H]1CCc2ccccc2N(Cc2ccc(-c3ccccc3-c3nnn[nH]3)cc2)C1=O [[R-(R*,R*)]-3-[(2-hydroxypropyl)amino]-3-methyl-N-[2,3,4,5-tetrahydro-2-oxo-1-[[2'-(H-tetrazol-5-yl)[1,1'-biphenyl]-4-yl]methyl]-1H-1-benzazepin-3-yl]butanamide]
[1]; palmitoyl carnitine chloride 0 mg/kg, β-cyclodextrin 0 mg/kg
  Fa at 3.5 h: 4.98 ± 5.67%
[1]; palmitoyl carnitine chloride 0 mg/kg, β-cyclodextrin 7.5 mg/kg
  Fa at 3.5 h: 3.1 ± 1.59%
[1]; palmitoyl carnitine chloride 0 mg/kg, β-cyclodextrin 15 mg/kg
  Fa at 3.5 h: 12 ± 7.23%
[1]; palmitoyl carnitine chloride 5 mg/kg, β-cyclodextrin 0 mg/kg
  Fa at 3.5 h: 11.9 ± 2.6%
[1]; palmitoyl carnitine chloride 5 mg/kg, β-cyclodextrin 7.5 mg/kg
  Fa at 3.5 h: 14 ± 5.4%
[1]; palmitoyl carnitine chloride 5 mg/kg, β-cyclodextrin 15 mg/kg
  Fa at 3.5 h: 20.4 ± 15.2%
[1]; palmitoyl carnitine chloride 10 mg/kg, β-cyclodextrin 0 mg/kg
  Fa at 3.5 h: 22.6 ± 13.5%
[1]; palmitoyl carnitine chloride 10 mg/kg, β-cyclodextrin 7.5 mg/kg
  Fa at 3.5 h: 29.6 ± 8.2%
[1]; palmitoyl carnitine chloride 10 mg/kg, β-cyclodextrin 15 mg/kg
  Fa at 3.5 h: 49.3 ± 13.4%
[2]
  route of excretion: excreted almost exclusively unchanged in the bile
[2]; rat, bile, after an IV dose, read-out: drug found in the bile
  dose excreted: 92%
[3]; dog, blood, absence of β-cyclodextrin, read-out: area under concentration-time curve ± standard deviations (converted)
  AUC at 4 h: 6.02 ng·h/mL
[3]; presence of β-cyclodextrin (7.5 mg/kg)
  area under concentration-time curve ± standard deviations: 19.8 ± 8.18 ng·h/mL
[4]; 2 mg/kg, powder, 2 mg/kg drug, palmitoyl carnitine chloride 0 mg/kg, β-cyclodextrin 0 mg/kg, read-out: absorption determined as in Example 1 (± standard deviation)
  Fa: 0.18 ± 0.26%
[4]; 2 mg/kg, powder, 2 mg/kg drug, palmitoyl carnitine chloride 10 mg/kg, β-cyclodextrin 0 mg/kg, read-out: absorption determined as in Example 1 (± standard deviation)
  Fa: 3.3 ± 1.9%
[4]; 2 mg/kg, powder, 2 mg/kg drug, palmitoyl carnitine chloride 10 mg/kg, β-cyclodextrin 7.5 mg/kg, read-out: absorption determined as in Example 1 (± standard deviation)
  Fa: 8.9 ± 7.6%
[4]; 2 mg/kg, powder, 2 mg/kg drug, palmitoyl carnitine chloride 10 mg/kg, β-cyclodextrin 15 mg/kg, read-out: absorption determined as in Example 1 (± standard deviation)
  Fa: 14.8 ± 9.8%
[4]; 2 mg/kg, tablet of lyophilized formulation containing β-cyclodextrin (15 mg/ml in solution), 2 mg/kg drug, 10 mg/kg palmitoyl carnitine chloride, read-out: percentage absorption
  Fa: 28.2 ± 18.3%
[4]; spheronized beads, drug:β-cyclodextrin:palmitoyl carnitine chloride:microcrystalline cellulose:starch 2:15:10:15:10, read-out: absorption
  Fa: 8.8%
[4]; tablet of lyophilized formulation containing hydroxypropyl-β-cyclodextrin (20 mg/ml in solution), 2 mg/kg drug, 10 mg/kg palmitoyl carnitine chloride, read-out: percentage absorption
  Fa: 7.5 ± 6.2%
